Data taken from patent publication US20060239958A1, “Biodegradable and pressure-sensitive material for medical use” (priority 2003, published 2006).

tested on: L929 cells; test: Cytotoxicity test using L929 cells; type: cell-based
Experimental: FIG. 1 is a graph showing the result of a cytotoxicity test on three compounds related to the synthesis of a citric acid derivative (CAD).
A cytotoxicity test was carried out in the following manner. As one example of the low-molecular-weight derivative serving as the hardening component, a biological low-molecular-weight derivative (CAD) was synthesized by modifying three carboxyl groups of a citric acid with N-hydroxysuccinimide (HOSu), and a cytotoxicity test was performed using L929 cells and the synthesized CAD. The number of cells in a sample added with no CAD was defined as 100%.

| SMILES | cytotoxicity (number of cells; sample added with no CAD defined as 100%) |
| --- | --- |
| O=C(CC(O)(CC(=O)ON1C(=O)CCC1=O)C(=O)ON1C(=O)CCC1=O)ON1C(=O)CCC1=O [CAD] | extremely low toxicity |
| O=C1CCC(=O)N1O [HOSu, N-hydroxysuccinimide] | extremely low toxicity |
| O=C(O)CC(O)(CC(=O)O)C(=O)O [citric acid] | extremely low toxicity |
